Assay results published in US8026274B2, “Use of oxandrolone in the treatment of burns and other wounds” (Savient Pharmaceuticals, Inc., priority 1996, dated 2011).
Entries after “also recorded” stand apart in the source; their conditions may differ.

Legend:
[1] = tested on: burn patients (deep burn of 30-50% of body surface); assay: Example 1: effect of oxandrolone on post-burn catabolism (I), recovery phase in burn patients; type: in vivo, human
Experimental: A study on the effect of oxandrolone on post-burn patients was performed as described below.
The patients included in this study had undergone: • a. catabolic phase until 80-90% of wound closure (4-10 weeks); • b. loss of 15-25% body weight (mostly lean body mass) during catabolic phase despite optimum nutrition;
The transition from “catabolic” to recovery “anabolic” was defined by: • a. No need for life support measures, being stable and out of the Intensive Care Unit (ICU); • b. No active infection (stress); • c. Open wound (not counting donor sites) not exceeding 10% Total Body Surface (TBS); • d. Patient taking oral diet with supplements or tube feeding (off parenteral feeding); • e. patient can actively participate in a physical therapy program with active ROM exercises accentuating the anabolic stimulus of exercise.
All patients were located in the burn step-down unit or in an acute rehabilitation hospital where daily information is retrieved from the physiatrist, nutritionist, and therapist.
The patients were divided into three groups in a prospective randomized manner: • Group 1: Standard nutritional goals as defined by the nutrition support service. • Group 2: Same as Group 1 plus 2-3 Met-Rx™ (protein supplement) per day (sufficient protein to increase daily protein intake to 2-2.2 g/kg/day). • Group 3: Same as Group 2 plus oxandrolone 20 mg orally four times daily. Measurements
The following factors were checked: • a. Subjective energy level (per Braintree study) 0-10; • b. Physical therapy index^1 (per Braintree study) 0-10: • 0 completes 25% session with fatigue • 2 completes 50% session with fatigue • 4 completes 75% session with fatigue • 6 completes 100% session with fatigue • 8 completes 100% session with no fatigue • 10 completes 100% session and more with no fatigue; • c. Weekly weight gain; • d. Daily nutritional profiles; • e. Measurement of lean body mass by bioelective impedance. ^1 assessment of muscle strength and endurance
The onset of the study was defined as the onset of the recovery phase (anabolic phase). Patients were studied for 3 weeks (from the onset of anabolism).

[2] = in contrast to the majority of oral androgenic anabolic steroids; cited from earlier work
[3] = tested on: burn patients (deep burn of 30-50% of body surface); assay: Example 2: effect of oxandrolone on post-burn catabolism (II), first three weeks of recovery phase; type: in vivo, human
Experimental: Another study on the effect of oxandrolone on post-burn patients was carried out as follows.
The onset of the study was defined as the onset of the recovery phase (anabolic phase). The study period included the first three weeks of the recovery phase. Although somewhat arbitrary, the beginning of the recovery period was determined for all patients using the following criteria: • a. No need for life support measures, with a stable cardiopulmonary status; • b. No active infection; • c. Basal body temperature below 99.5° F.; • d. Metabolic rate at rest (indirect calorimetry) being less than 130% of normal; • e. Open wound (not counting donor sites) not exceeding 10% TBS; • f. Patient taking adequate oral diet with supplements or tube feeding and off all parenteral feeding; • g. active participation in a physical therapy program including resistance exercises especially to large muscle groups.
The patients were divided into three groups in a prospective randomized manner: • Group 1: High protein high calorie ad lib oral diet and protein supplement Met-Rx™. The supplement was given in a quantity equal to approximately one liter so that total protein intake would approximate 2 g/kg/day. • Group 2: Same as Group I with the addition of oxandrolone 10 mg orally twice a day. • Group 3: ad lib oral diet and a protein hydrolysate supplement (Ensure-HN or Sustacal). These supplements contain approximately 40-45 g/l protein, 140-150 g/l carbohydrate and 30-37 g/l fat. Daily protein intake consumed equalled 1.3-1.5 g/kg or 75% above the RDA value for healthy normals of 0.8 g/kg. This group was managed in the ten months prior to the onset of this study.
All patients were located in the burn/trauma step-down unit and then transferred to an acute rehabilitation hospital usually within the first week of onset of the recovery period. A burn nurse coordinator followed all patients at the rehabilitation hospitals. All patients were monitored until discharge but only the first three week period was used for the study period.
The following factors were checked: • a. Fatigue was measured objectively through increases in pulse of over 75% of predicted maximum (based on age) and a respiratory rate exceeding 30 breaths per minute beyond one minute after completion of the activity. • b. Muscle function was quantitated using a physical therapy index. The physical therapy program was determined for each patient by the burn therapist team based on optimum projected goals to be achieved at the three week period. Standard isokinetic and resistance exercises were used to increase strength. Ambulation, stair climbing and the stationary bike were used to increase endurance. Since the basic components of therapy programs were nearly identical between patients, an index was developed which quantitated progress of patient performance:
• c. Body weight; • d. Daily nutritional profiles; • e. Liver function
Within each group, paired data was analyzed using Dunnett's T-test comparing individual time periods. Between groups, analysis was compared by use of a nonparametric method, the Wilcoxan Signed Rank Test. Standard regression analysis was also performed. A p<0.05 was considered significant.

[4] = tested on: pressure sores (decubitus ulcers) in a paraplegic patient; assay: Example 3: oxandrolone treatment of pressure sores (decubitus ulcers); type: in vivo, human; conditions: 20 mg per day orally, preliminary result
From the text: A paraplegic patient was suffering from pressure sores (decubitus ulcers) which had been unhealed for over one year. […] Further experiments using oxandrolone for treatment of pressure sores and other wounds are planned.

[5] = doses below 80 mg; cited from earlier work
[6] = in vivo; cited from earlier work
[7] = tested on: patients with alcoholic hepatitis; conditions: dosages of up to 80 mg/day; cited from earlier work
[8] = Group III: oxandrolone 20 mg orally four times daily plus Met-Rx, 3 weeks
[9] = Group 2: oxandrolone 10 mg orally twice a day plus Met-Rx

## C[C@]12COC(=O)C[C@@H]1CC[C@@H]1[C@@H]2CC[C@@]2(C)[C@H]1CC[C@]2(C)O [oxandrolone, 17α-methyl-17β-hydroxy-2-oxa-5α-androstan-3-one]
[1]; [8]
  energy level (0-10): markedly improved
  therapy (physical therapy index 0-10): markedly improved
[1]; Group III: oxandrolone 20 mg orally four times daily plus Met-Rx, 4 patients, 3 weeks
  weight gain relative to Group I (standard nutrition): four times that of Group I
[1]; Group III: oxandrolone plus Met-Rx, compared with Group II
  food intake: apparent added stimulus to food intake
[1]; combination of Met-Rx and oxandrolone
  lean body weight gain as share of weight gain, by bioelective impedance: 80%
[2]
  hepatic metabolism: relatively little hepatic metabolism
[3]; 3 of 6 patients followed for eight weeks after discontinuation of three weeks of oxandrolone
  maintenance of weight after discontinuation: the weight remained
[3]; [9]
  average time of discharge from the rehabilitation or recovery phase to home: 22 ± 4 days
  weight gain over the three week period relative to Group 1 (Met-Rx alone): double that of Group 1
  weight gain relative to retrospective Group 3 (standard supplements): nearly four times that of retrospective Group 3; also recorded: significantly increased
[3]; Group 2: oxandrolone 10 mg orally twice a day plus Met-Rx, three weeks
  physical therapy index (muscle strength and endurance, 0-10): performance exceeded expectations; also recorded: significantly higher than either of the other groups; also recorded: significantly increased
[3]; Group 2: oxandrolone 10 mg orally twice a day plus Met-Rx, one patient
  liver function tests / chemical abnormality: transient small increase in alkaline phosphatase
[3]; the three women in the oxandrolone group
  hirsutism: No hirsutism
[4]
  healing of pressure sores unhealed for over one year: the sores began to heal
[5]
  water retention: not reported to occur
[6]
  anabolic activity relative to its androgenic activity: approximately 6 times
  anabolic activity relative to that of methyltestosterone: 6.3 times
[7]
  safety: safe
